Toxic doses and inconclusive results are not listed.
Tested on: L1210 leukemia ip in BDF1 mice, survival T/C
Experiment: NCI In Vivo Anticancer Drug Screen. Data for tumor model L1210 Leukemia (intraperitoneal) in B6D2F1 (BDF1) mice
Settings: endpoint: mean survival time, higher = longer survival
Summary of the method: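 Tumor was transplanted into mice, which were then dosed with test compound or vehicle alone. Survival was recorded for each group, and the treated figure was expressed relative to the control figure.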

[1] = dose: 100.0 mg/kg/injection, schedule: Q01DX009 (ip), vehicle: Klucel (hydroxypropylcellulose) (HPC)
[2] = dose: 100.0 mg/kg/injection, schedule: Q04DX003 (ip), vehicle: Klucel (hydroxypropylcellulose) (HPC)
[3] = dose: 200.0 mg/kg/injection, schedule: Q01DX009 (ip), vehicle: Klucel (hydroxypropylcellulose) (HPC)
[4] = dose: 200.0 mg/kg/injection, schedule: Q04DX003 (ip), vehicle: Klucel (hydroxypropylcellulose) (HPC)
[5] = dose: 400.0 mg/kg/injection, schedule: Q01DX009 (ip), vehicle: Klucel (hydroxypropylcellulose) (HPC)
[6] = dose: 400.0 mg/kg/injection, schedule: Q04DX003 (ip), vehicle: Klucel (hydroxypropylcellulose) (HPC)
[7] = dose: 100.0 mg/kg/injection, schedule: Q04DX003 (ip), vehicle: saline with Tween-80
[8] = dose: 200.0 mg/kg/injection, schedule: Q04DX003 (ip), vehicle: saline with Tween-80
[9] = dose: 400.0 mg/kg/injection, schedule: Q04DX003 (ip), vehicle: saline with Tween-80
[10] = dose: 50.0 mg/kg/injection, schedule: Q01DX001 (ip), vehicle: carboxymethylcellulose (CMC)
[11] = dose: 100.0 mg/kg/injection, schedule: Q01DX001 (ip), vehicle: carboxymethylcellulose (CMC)
[12] = dose: 200.0 mg/kg/injection, schedule: Q01DX001 (ip), vehicle: carboxymethylcellulose (CMC)
[13] = dose: 400.0 mg/kg/injection, schedule: Q01DX001 (ip), vehicle: carboxymethylcellulose (CMC)
[14] = dose: 100.0 mg/kg/injection, schedule: Q01DX001 (ip), vehicle: saline
[15] = dose: 200.0 mg/kg/injection, schedule: Q01DX001 (ip), vehicle: saline
[16] = dose: 400.0 mg/kg/injection, schedule: Q01DX001 (ip), vehicle: saline

NC(=O)Nc1nc(-c2ccccc2)no1
T/C [1]: 103 % of control
T/C [2]: 97 % of control
T/C [3]: 93 % of control
T/C [4]: 105 % of control
T/C [5]: 95 % of control
T/C [6]: 89 % of control

Cc1ccc(S(=O)(=O)OC(c2ccccc2)c2ccccc2)cc1
T/C (dose: 25.0 mg/kg/injection, schedule: Q04DX002 (ip), vehicle: Klucel (hydroxypropylcellulose) (HPC)): 97 % of control
T/C (dose: 50.0 mg/kg/injection, schedule: Q04DX002 (ip), vehicle: Klucel (hydroxypropylcellulose) (HPC)): 97 % of control
T/C (dose: 100.0 mg/kg/injection, schedule: Q04DX002 (ip), vehicle: Klucel (hydroxypropylcellulose) (HPC)): 93 % of control

O=c1cc(CNc2ccc(Cl)cc2)[nH]c(=O)[nH]1
T/C [7]: 98 % of control
T/C [8]: 101 % of control
T/C [9]: 95 % of control

O=C(O)CCCc1ccccc1
T/C [10]: 94 % of control
T/C [11]: 108 % of control
T/C (dose: 100.0 mg/kg/injection, schedule: Q04DX002 (ip), vehicle: saline with Tween-80): 98 % of control
T/C [12]: 96 % of control
T/C (dose: 200.0 mg/kg/injection, schedule: Q04DX002 (ip), vehicle: saline with Tween-80): 91 % of control
T/C [13]: 107 % of control
T/C (dose: 400.0 mg/kg/injection, schedule: Q04DX002 (ip), vehicle: saline with Tween-80): 109 % of control

CCCCCCC(CO)CCCC (stereo not drawn)
T/C [2]: 97 % of control
T/C [4]: 97 % of control
T/C [6]: 100 % of control

CC(=O)c1ccc(NCc2cnc3nc(N)nc(N)c3n2)cc1
T/C (dose: 20.0 mg/kg/injection, schedule: Q01DX009 (ip), vehicle: Klucel (hydroxypropylcellulose) (HPC)): 102 % of control
T/C (dose: 40.0 mg/kg/injection, schedule: Q01DX009 (ip), vehicle: Klucel (hydroxypropylcellulose) (HPC)): 105 % of control
T/C (dose: 80.0 mg/kg/injection, schedule: Q01DX009 (ip), vehicle: Klucel (hydroxypropylcellulose) (HPC)): 105 % of control

CNC(=O)Oc1cccc(NC(=O)OC(C)C)c1
T/C (dose: 100.0 mg/kg/injection, schedule: Q01DX009 (ip), vehicle: saline with Tween-80): 97 % of control
T/C (dose: 200.0 mg/kg/injection, schedule: Q01DX009 (ip), vehicle: saline with Tween-80): 98 % of control
T/C (dose: 400.0 mg/kg/injection, schedule: Q01DX009 (ip), vehicle: saline with Tween-80): 92 % of control

COc1ccc(C)cc1NC(=O)Nc1cc([N+](=O)[O-])ccc1C
T/C [1]: 93 % of control
T/C [3]: 98 % of control
T/C [5]: 102 % of control

CCOC(=O)/C(Cc1n[n+]([O-])ccc1Cl)=N\N
T/C (dose: 43.75 mg/kg/injection, schedule: Q04DX002 (ip), vehicle: Klucel (hydroxypropylcellulose) (HPC)): 116 % of control
T/C (dose: 87.5 mg/kg/injection, schedule: Q04DX002 (ip), vehicle: Klucel (hydroxypropylcellulose) (HPC)): 101 % of control
T/C (dose: 175.0 mg/kg/injection, schedule: Q04DX002 (ip), vehicle: Klucel (hydroxypropylcellulose) (HPC)): 96 % of control

O=C(O)C1C2C=CC(O2)C1C(=O)NCc1cccnc1 (stereo not drawn)
T/C [14]: 106 % of control
T/C [15]: 94 % of control
T/C [16]: 95 % of control

C=CCC(Cl)(C(=O)OC)C(=O)OC
T/C [7]: 91 % of control
T/C [8]: 89 % of control
T/C [9]: 94 % of control

CCOc1ccc(N)c([N+](=O)[O-])c1
T/C [14]: 100 % of control
T/C [15]: 107 % of control
T/C [16]: 105 % of control

COc1cc(NC(=O)Nc2cccc(C(C)=O)c2)c(OC)cc1Cl
T/C [1]: 116 % of control
T/C [3]: 110 % of control
T/C [5]: 110 % of control

N=c1c2ccccc2c2ccccc2n1O
T/C [7]: 96 % of control
T/C [8]: 98 % of control
T/C [9]: 103 % of control

Cc1ccccc1NP1(=O)OCCCN1Cc1ccc(Cl)c(Cl)c1 (stereo not drawn)
T/C [10]: 98 % of control
T/C [11]: 98 % of control
T/C [12]: 98 % of control
T/C [13]: 93 % of control

O=C1COC2CCCCC2O1 (stereo not drawn)
T/C [11]: 108 % of control
T/C [12]: 101 % of control
T/C [13]: 106 % of control

O=P1(Nc2ccccc2)OCCCN1Cc1ccccc1Cl (stereo not drawn)
T/C [10]: 98 % of control
T/C [11]: 98 % of control
T/C [12]: 98 % of control
T/C [13]: 93 % of control

C=CCOC(=O)C(C)O (stereo not drawn)
T/C (dose: 50.0 mg/kg/injection, schedule: Q01DX009 (ip), vehicle: saline): 98 % of control
T/C [14]: 105 % of control
T/C (dose: 100.0 mg/kg/injection, schedule: Q01DX009 (ip), vehicle: saline): 98 % of control
T/C [15]: 105 % of control
T/C (dose: 200.0 mg/kg/injection, schedule: Q01DX009 (ip), vehicle: saline): 98 % of control

O=S(=O)(Nc1cccc2ccccc12)c1ccc(Cl)cc1
T/C [1]: 102 % of control
T/C [3]: 87 % of control
T/C [5]: 95 % of control

Oc1ccc(Br)c2cccnc12
T/C (dose: 50.0 mg/kg/injection, schedule: Q01DX001 (ip), vehicle: saline): 100 % of control
T/C [14]: 103 % of control
T/C [15]: 103 % of control
T/C [16]: 100 % of control

CCCC(C)OS(=O)(=O)c1ccc([N+](=O)[O-])cc1 (stereo not drawn)
T/C (dose: 100.0 mg/kg/injection, schedule: Q04DX002 (ip), vehicle: saline): 101 % of control
T/C (dose: 200.0 mg/kg/injection, schedule: Q04DX002 (ip), vehicle: saline): 90 % of control
T/C (dose: 400.0 mg/kg/injection, schedule: Q04DX002 (ip), vehicle: saline): 92 % of control

C=CCc1c(C)ccc(C)c1OC
T/C [1]: 97 % of control
T/C [2]: 107 % of control
T/C [3]: 95 % of control
T/C [4]: 102 % of control
T/C [5]: 97 % of control
T/C [6]: 102 % of control

COC(=O)C(CCCCN=Cc1ccccc1O)N=Cc1ccccc1O.[Ni] (stereo not drawn)
T/C [7]: 87 % of control
T/C [8]: 88 % of control

COC(=O)c1ccc(N(C)CC/C(CN)=N/NC(N)=O)cc1
T/C [11]: 96 % of control
T/C [12]: 96 % of control
T/C [13]: 102 % of control

CC(=O)NC(C(C)=O)C(C)=O.CC(=O)NC(C(C)=O)C(C)=O.[Cu]
T/C (dose: 12.0 mg/kg/injection, schedule: Q01DX001 (ip), vehicle: saline): 90 % of control
T/C (dose: 25.0 mg/kg/injection, schedule: Q01DX001 (ip), vehicle: saline): 88 % of control

c1ccc(CNCc2ccc(CNCc3ccccc3)cc2)cc1
T/C [7]: 93 % of control
T/C [8]: 97 % of control
T/C [9]: 98 % of control

CC(C)CCC[C@@H](C)[C@H]1CC[C@H]2[C@@H]3CC[C@H]4C[C@H](NC(=O)N(CCF)N=O)CC[C@]4(C)[C@H]3CC[C@]12C
T/C (dose: 8.0 mg/kg/injection, schedule: Q01DX001 (ip), vehicle: other): 102 % of control
T/C (dose: 16.0 mg/kg/injection, schedule: Q01DX001 (ip), vehicle: other): 103 % of control
T/C (dose: 31.0 mg/kg/injection, schedule: Q01DX001 (ip), vehicle: other): 108 % of control
T/C (dose: 62.0 mg/kg/injection, schedule: Q01DX001 (ip), vehicle: other): 116 % of control
T/C (dose: 250.0 mg/kg/injection, schedule: Q01DX001 (ip), vehicle: other): 116 % of control
T/C (dose: 375.0 mg/kg/injection, schedule: Q01DX001 (ip), vehicle: other): 122 % of control
T/C (dose: 500.0 mg/kg/injection, schedule: Q01DX001 (ip), vehicle: other): 124 % of control
T/C (dose: 750.0 mg/kg/injection, schedule: Q01DX001 (ip), vehicle: other): 170 % of control
T/C (dose: 1000.0 mg/kg/injection, schedule: Q01DX001 (ip), vehicle: other): 153 % of control
T/C (dose: 1500.0 mg/kg/injection, schedule: Q01DX001 (ip), vehicle: other): 188 % of control
T/C (dose: 2000.0 mg/kg/injection, schedule: Q01DX001 (ip), vehicle: other): 202 % of control
T/C (dose: 2500.0 mg/kg/injection, schedule: Q01DX001 (ip), vehicle: other): 252 % of control

CCOC(=O)c1nc(N)[nH]c(=O)c1CCCCc1ccccc1
T/C (dose: 150.0 mg/kg/injection, schedule: Q01DX001 (ip), vehicle: saline with Tween-80): 87 % of control
T/C (dose: 300.0 mg/kg/injection, schedule: Q01DX001 (ip), vehicle: saline with Tween-80): 89 % of control

CCCCN(CCCC)CC(O)c1cc(Cl)cc2cccnc12 (stereo not drawn)
T/C (dose: 12.5 mg/kg/injection, schedule: Q01DX009 (ip), vehicle: Klucel (hydroxypropylcellulose) (HPC)): 106 % of control
T/C (dose: 25.0 mg/kg/injection, schedule: Q01DX009 (ip), vehicle: Klucel (hydroxypropylcellulose) (HPC)): 98 % of control
T/C (dose: 50.0 mg/kg/injection, schedule: Q01DX009 (ip), vehicle: Klucel (hydroxypropylcellulose) (HPC)): 109 % of control

Source: PubChem BioAssay AID248 (DTP/NCI, 2004)
